This is an account of results in patent publication US11873298B2, “Compounds and uses thereof” (JANSSEN PHARMACEUTICA NV, priority 2017, dated 2024).

By IC50 is commonly meant the concentration at which inhibition is half-maximal.

One assay concerns the target T1, SCD1 (Homo sapiens, UniProt O00767).
T1 construct: host or cells: S. cerevisiae ole1Δ strain (W303 pdr1Δ pdr3Δ background), plasmid pRS316 with TDH3 promoter and CYC1 terminator
T1 sequence (O00767 1-359): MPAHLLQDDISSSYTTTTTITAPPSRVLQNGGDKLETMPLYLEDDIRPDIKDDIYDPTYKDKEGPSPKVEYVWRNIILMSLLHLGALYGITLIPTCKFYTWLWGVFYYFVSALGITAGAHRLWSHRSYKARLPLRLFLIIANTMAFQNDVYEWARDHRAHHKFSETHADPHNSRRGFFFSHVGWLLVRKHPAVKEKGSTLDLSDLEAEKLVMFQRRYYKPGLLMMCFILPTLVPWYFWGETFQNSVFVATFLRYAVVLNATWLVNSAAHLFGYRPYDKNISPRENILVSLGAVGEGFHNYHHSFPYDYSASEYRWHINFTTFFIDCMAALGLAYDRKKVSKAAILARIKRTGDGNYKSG
Nature of the assay: Growth inhibition of humanized yeast strain expressing SCD1 as sole desaturase. It counts as cell-based. A digest of the protocol: (§1)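 Measured by optical density at 600 nm, growth of desaturase-dependent yeast (OLE1 deleted; human SCD1, human SCD5 or yeast Ole1 supplied from plasmid) was scored after 24 h (Ole1) or 40 h (SCD1, SCD5) at 30° C. in galactose media lacking uracil with DMSO-delivered compound.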

In a further assay the target is T2, SCD5 (Homo sapiens, UniProt Q86SK9).
T2 construct: host or cells: S. cerevisiae ole1Δ strain (W303 pdr1Δ pdr3Δ background), plasmid pRS316 with TDH3 promoter and CYC1 terminator
T2 sequence (Q86SK9 1-330): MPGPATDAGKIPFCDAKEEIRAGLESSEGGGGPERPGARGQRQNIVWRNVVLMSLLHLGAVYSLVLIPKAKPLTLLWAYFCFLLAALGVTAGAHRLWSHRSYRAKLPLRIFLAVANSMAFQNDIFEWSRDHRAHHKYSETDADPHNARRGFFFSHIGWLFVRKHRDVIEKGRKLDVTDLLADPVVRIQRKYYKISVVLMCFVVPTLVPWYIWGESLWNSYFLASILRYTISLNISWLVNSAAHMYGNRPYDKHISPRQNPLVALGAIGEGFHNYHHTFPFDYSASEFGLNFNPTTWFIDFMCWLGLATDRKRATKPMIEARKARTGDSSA
Nature of the assay: Growth inhibition of humanized yeast strain expressing SCD5 as sole desaturase. It counts as cell-based. The procedure, abridged: as §1

[1] abbreviates: growth inhibition of humanized yeast strain expressing human SCD1.
[2] abbreviates: growth inhibition of humanized yeast strain expressing human SCD5.

For `CC(C)n1ccc2ccc(-c3nc(C4CCN(C(=O)OC(C)(C)C)CC4)no3)cc21` [Compound 1048], the half-maximal inhibitory concentration (IC50) against SCD1 (humanized yeast strain, 40 h) is above 45 µM; at SCD5 (humanized yeast strain, 40 h) it was 16 nM.
On the same counts, the results for `COCC(C)(C)n1ncc2ccc(-c3noc(C4CCN(C(=O)CC(C)(C)C)CC4)n3)cc21` [Compound 802] are above 45 µM and 14200 nM.
On the same counts, the results for `CC(C)n1ncc2ccc(-c3noc(N4CCn5ccnc5C4)n3)cc21` [Compound 804] are above 45 µM and above 45000 nM.
For `O=C(C1CCC1)N1CCC(c2noc(-c3ccc4cnn(C5COC5)c4c3)n2)CC1` [Compound 880], in that order: above 45 µM and 10 nM.
With `COC(=O)N1CCC(c2noc(-c3ccc4cnn(C5CS(=O)(=O)C5)c4c3)n2)CC1` [Compound 1000], the IC50 was above 45 µM at SCD1 (humanized yeast strain, 40 h) and 650 nM against SCD5 (humanized yeast strain, 40 h).
For `CC(C)(C)CC(=O)N1CCN(c2nc(-c3ccc4cnn(C5COC5)c4c3)no2)CC1` [Compound 619], the half-maximal inhibitory concentration (IC50) is above 45 µM at SCD1 (setting [1]) and 291 nM against SCD5 (setting [2]).
`CC(C)(C)OC(=O)N1CCC(c2nc(-c3cccc(C(=O)N4CCC4)c3)no2)CC1` [Compound 741]: the results for the IC50 against SCD1 (setting [1]) and against SCD5 (setting [2]) were above 45 µM and 7760 nM, respectively.
On the same counts, the results for `CC(C)n1ncc2ccc(N3CC4(CCN(C(=O)CC(C)(C)C)CC4)C3)cc21` [Compound 632] are above 45 µM and above 45000 nM.
`O=C(C1CC1)N1CCN(c2noc(-c3ccnc(Cl)c3)n2)CC1` [Compound 1118]: the IC50 is above 45 µM against SCD1 (humanized yeast strain, 40 h) and above 45000 nM against SCD5 (humanized yeast strain, 40 h).
For `CC(C)C(=O)N1CCC(c2noc(-c3ccc4cnn(C5COC5)c4c3F)n2)CC1` [Compound 1112], in that order: above 45 µM and 193 nM.
For `COC(=O)N1CCC(c2noc(-c3ccc4cnn(C5CCS(=O)(=O)C5)c4c3)n2)CC1` (centres unmarked) [Compound 1077], in that order: above 45 µM and 300 nM.
For `c1cc2cnn(C3COC3)c2cc1-c1nc(C2CCCNCC2)no1` (centres unmarked) [Compound 863], in that order: above 45 µM and above 45000 nM.
As to `COC(=O)N1CCC(c2noc(-c3ccc(F)c(N4CCOCC4)c3)n2)CC1` [Compound 1161], the IC50 against SCD1 (humanized yeast strain, 40 h) was above 45 µM; against SCD5 (humanized yeast strain, 40 h), 36.3 nM.
In the case of `CC(C)(C)OC(=O)N1CCN(c2nnc(-c3ccc4cnn(C5COC5)c4c3)o2)CC1` [Compound 976], the 50% inhibitory concentration (IC50) was above 45 µM at SCD1 (humanized yeast strain, 40 h) and 5330 nM against SCD5 (humanized yeast strain, 40 h).
Take `CC1(OC(=O)N2CCN(c3nc(-c4ccc5cnn(C6COC6)c5c4)no3)CC2)CC1` [Compound 620]: the concentration for half-maximal inhibition (IC50) on SCD1 (setting [1]) is above 45 µM; against SCD5 (setting [2]) it was 13 nM.
On the same counts, the results for `COCCc1nn(C(C)C)c2cc(-c3noc(C4CCN(C(=O)OC(C)(C)C)CC4)n3)ccc12` [Compound 702] are above 45 µM and above 45000 nM.
On to `CC(C)(C)OC(=O)N1CCC(c2noc(N3CCc4c(cnn4C4COC4)C3)n2)CC1` [Compound 1173], for which the half-maximal inhibitory concentration (IC50) against SCD1 (humanized yeast strain, 40 h) is at least 45 µM; against SCD5 (humanized yeast strain, 40 h), 23400 nM.
On to `Cc1nn(C)c2cc(-c3noc(C4CCN(c5nc6ccccc6o5)CC4)n3)ccc12` [Compound 669], for which the IC50 against SCD1 (setting [1]) was above 45 µM; at SCD5 (setting [2]) it was above 45000 nM.
For `CN(C)CC(=O)N1CCN(c2nc(-c3ccc4cnn(C5COC5)c4c3)no2)CC1` [Compound 737], in that order: above 45 µM and above 45000 nM.
With `CC(C)n1ncc2cnc(-c3cc(C4CCN(C(=O)OC5(C)CC5)CC4)on3)cc21` [Compound 919], the IC50 on SCD1 (humanized yeast strain, 40 h) was above 45 µM; on SCD5 (humanized yeast strain, 40 h), 180 nM.
On the same counts, the results for `CC(C)C(=O)N1CCC(c2noc(-c3ccc4cnn(C5CCOC5)c4c3)n2)CC1` (centres unmarked) [Compound 1024] are above 45 µM and 10 nM.
On the same counts, the results for `COc1cc(-c2nc(C3CCN(C(=O)OC(C)(C)C)CC3)no2)cc2c1cnn2C1COC1` [Compound 1076] are above 45 µM and 1030 nM.
